According to patent US20090203708A1, “NOVEL SUBSTITUTED-1-H-QUINAZOLINE-2,4-DIONE DERIVATIVES, PREPARATION METHOD THEREOF AND PHARMACEUTICAL COMPOSITION CONTAINING THE SAME” (Korea Research Institute of Chemical Technology, priority 2006, published 2009):

Columns and labels:
D2 (hD2L receptor) = molecular target: T1, D2 (hD2L receptor) (Homo sapiens, UniProt P14416); test: Radioligand binding assay, dopamine D2; conditions: [3H] spiperone 1 nM; read-out: Binding affinity IC50 D2
T1 construct: purchased BioSignal Packard Inc., Montreal, Canada
T1 sequence (P14416 whole entry): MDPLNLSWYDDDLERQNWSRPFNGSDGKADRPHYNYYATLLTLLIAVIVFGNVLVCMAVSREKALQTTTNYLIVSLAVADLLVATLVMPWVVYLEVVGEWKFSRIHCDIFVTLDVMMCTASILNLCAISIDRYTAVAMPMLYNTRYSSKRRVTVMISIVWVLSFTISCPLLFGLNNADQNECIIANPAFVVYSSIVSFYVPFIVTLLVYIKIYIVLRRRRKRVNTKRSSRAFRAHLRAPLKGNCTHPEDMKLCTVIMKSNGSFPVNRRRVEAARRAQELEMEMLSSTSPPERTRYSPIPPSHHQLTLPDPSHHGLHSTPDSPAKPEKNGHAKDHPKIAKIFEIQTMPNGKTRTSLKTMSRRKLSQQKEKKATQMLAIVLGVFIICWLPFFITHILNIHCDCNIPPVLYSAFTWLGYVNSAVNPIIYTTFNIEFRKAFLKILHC
Method: (§1) Radioligand binding assays for dopamine receptor family (D1, D2 and D3) were performed according to the protocols provided by the manufacturer of receptor membranes (BioSignal Packard Inc., Montreal, Canada). The radioligands used were [^3H] spiperone (for hD2L and hD3 receptors, 1 nM) and [^3H] YM-09151-2 (hD4.2 receptor, 0.06 nM). Briefly, the buffer used in the D1, D2 and D3 receptor binding assay was 50 mM Tris-HCl (pH 7.4), containing 10 mM MgCl2 and 1 mM EDTA, or 50 mM Tris-HCl (pH 7.4), containing 5 mM MgCl2, 5 mM EDTA, 5 mM KCl, 1.5 mM CaCl2 and 120 mM NaCl. For [^3H] YM-09151-2 receptor binding assays, 50 mM Tris-HCl (pH 7.4) containing 5 mM MgCl2, 5 mM EDTA, 5 mM KCl and 1.5 mM CaCl2, was used as a buffer. Nonspecific binding was determined with haloperidol (10 μM) for D2 and D3 and clozapine (10 μM) for D4 receptors.
(§2) Competition binding studies were carried out with 7-8 concentrations of the test compound run in duplicate tubes, and isotherms from three assays were calculated by computerized nonlinear regression analysis (GraphPad Prism Program, San Diego, […]) to yield median inhibitory concentration (IC50) values.

D4 (hD4.2 receptor) = molecular target: T2, D4 (hD4.2 receptor) (Homo sapiens, UniProt P21917, DEL265-296); test: Radioligand binding assay, dopamine D4; conditions: [3H] YM-09151-2 0.06 nM; read-out: Binding affinity IC50 D4
T2 construct: purchased BioSignal Packard Inc., Montreal, Canada
T2 sequence (P21917 with tags, fused parts or gaps DEL265-296): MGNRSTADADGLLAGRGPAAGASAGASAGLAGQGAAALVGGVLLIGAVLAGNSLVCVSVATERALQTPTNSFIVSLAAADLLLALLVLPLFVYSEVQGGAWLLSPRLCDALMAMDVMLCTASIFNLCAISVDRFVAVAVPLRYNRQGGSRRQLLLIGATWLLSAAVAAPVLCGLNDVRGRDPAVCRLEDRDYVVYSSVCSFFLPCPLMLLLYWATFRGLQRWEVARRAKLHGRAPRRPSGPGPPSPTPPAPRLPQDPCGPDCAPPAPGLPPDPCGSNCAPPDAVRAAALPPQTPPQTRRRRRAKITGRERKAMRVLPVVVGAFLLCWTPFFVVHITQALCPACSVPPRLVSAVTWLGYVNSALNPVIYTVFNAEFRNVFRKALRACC
Method: as §1, §2

[1] = molecular target: 5-HT7 (human recombinant receptor, CHO-K1) (Homo sapiens, UniProt P34969); test: Radioligand binding assay, 5-HT7
5-HT7 (human recombinant receptor, CHO-K1), sequence (P34969 whole entry): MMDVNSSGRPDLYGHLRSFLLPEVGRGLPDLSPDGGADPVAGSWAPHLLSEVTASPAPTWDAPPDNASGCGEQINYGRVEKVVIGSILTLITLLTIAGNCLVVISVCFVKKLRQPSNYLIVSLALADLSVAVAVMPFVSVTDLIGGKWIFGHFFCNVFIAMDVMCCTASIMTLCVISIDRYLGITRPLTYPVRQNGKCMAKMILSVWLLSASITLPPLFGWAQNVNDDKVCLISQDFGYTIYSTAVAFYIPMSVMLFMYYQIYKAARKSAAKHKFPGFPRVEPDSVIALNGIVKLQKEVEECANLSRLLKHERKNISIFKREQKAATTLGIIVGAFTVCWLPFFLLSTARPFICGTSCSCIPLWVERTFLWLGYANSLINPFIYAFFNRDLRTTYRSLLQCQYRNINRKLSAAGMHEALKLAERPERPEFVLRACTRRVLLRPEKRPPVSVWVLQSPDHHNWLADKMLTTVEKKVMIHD

[2] = molecular target: T3, 5-HT1a (human recombinant receptor, CHO-K1) (Homo sapiens, UniProt P08908); test: Radioligand binding assay, 5-HT1a
T3 sequence (P08908 1-422): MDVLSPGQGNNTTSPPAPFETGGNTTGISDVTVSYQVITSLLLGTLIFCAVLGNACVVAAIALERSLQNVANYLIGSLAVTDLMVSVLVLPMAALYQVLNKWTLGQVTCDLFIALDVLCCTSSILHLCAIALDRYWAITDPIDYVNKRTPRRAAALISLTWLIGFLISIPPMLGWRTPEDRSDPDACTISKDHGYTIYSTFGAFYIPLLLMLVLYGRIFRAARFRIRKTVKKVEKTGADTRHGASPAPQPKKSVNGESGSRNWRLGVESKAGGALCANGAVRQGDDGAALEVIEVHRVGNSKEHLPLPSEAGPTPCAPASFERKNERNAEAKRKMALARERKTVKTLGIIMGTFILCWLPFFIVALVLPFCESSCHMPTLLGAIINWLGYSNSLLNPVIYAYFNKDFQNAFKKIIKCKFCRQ

[3] = molecular target: 5-HT2a (human recombinant receptor, CHO-K1) (Homo sapiens, UniProt P28223); test: Radioligand binding assay, 5-HT2a
5-HT2a (human recombinant receptor, CHO-K1), sequence (P28223 whole entry): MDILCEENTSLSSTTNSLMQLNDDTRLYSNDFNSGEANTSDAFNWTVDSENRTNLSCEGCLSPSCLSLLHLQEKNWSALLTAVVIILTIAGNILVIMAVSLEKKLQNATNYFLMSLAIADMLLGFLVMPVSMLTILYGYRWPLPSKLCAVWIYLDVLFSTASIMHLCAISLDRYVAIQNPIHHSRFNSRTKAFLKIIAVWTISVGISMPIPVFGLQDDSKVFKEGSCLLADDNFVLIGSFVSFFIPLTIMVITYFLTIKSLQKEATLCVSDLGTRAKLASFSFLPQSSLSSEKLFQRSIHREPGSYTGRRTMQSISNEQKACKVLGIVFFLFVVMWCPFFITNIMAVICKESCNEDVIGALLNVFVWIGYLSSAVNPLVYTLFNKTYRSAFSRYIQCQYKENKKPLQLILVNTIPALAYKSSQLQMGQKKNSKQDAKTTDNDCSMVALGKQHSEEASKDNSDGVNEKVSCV

[4] = molecular target: T4, 5-HT2c (human recombinant receptor, CHO-K1) (Homo sapiens, UniProt P28335); test: Radioligand binding assay, 5-HT2c
T4 sequence (P28335 33-458): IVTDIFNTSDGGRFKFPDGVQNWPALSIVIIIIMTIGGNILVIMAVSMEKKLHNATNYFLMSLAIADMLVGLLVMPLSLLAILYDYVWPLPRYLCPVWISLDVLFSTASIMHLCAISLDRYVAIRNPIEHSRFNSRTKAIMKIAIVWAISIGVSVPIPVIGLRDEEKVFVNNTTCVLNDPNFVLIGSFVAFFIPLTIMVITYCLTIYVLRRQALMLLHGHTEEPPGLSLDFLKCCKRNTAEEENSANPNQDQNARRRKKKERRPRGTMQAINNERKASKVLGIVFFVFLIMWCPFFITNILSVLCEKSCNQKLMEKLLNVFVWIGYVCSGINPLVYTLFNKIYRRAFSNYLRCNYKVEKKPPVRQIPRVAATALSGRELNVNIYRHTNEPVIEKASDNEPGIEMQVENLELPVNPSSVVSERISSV

D3 (hD3 receptor) = D3 (hD3 receptor) (Homo sapiens, UniProt P35462); test: Radioligand binding assay, dopamine D3
D3 (hD3 receptor), sequence (P35462 whole entry): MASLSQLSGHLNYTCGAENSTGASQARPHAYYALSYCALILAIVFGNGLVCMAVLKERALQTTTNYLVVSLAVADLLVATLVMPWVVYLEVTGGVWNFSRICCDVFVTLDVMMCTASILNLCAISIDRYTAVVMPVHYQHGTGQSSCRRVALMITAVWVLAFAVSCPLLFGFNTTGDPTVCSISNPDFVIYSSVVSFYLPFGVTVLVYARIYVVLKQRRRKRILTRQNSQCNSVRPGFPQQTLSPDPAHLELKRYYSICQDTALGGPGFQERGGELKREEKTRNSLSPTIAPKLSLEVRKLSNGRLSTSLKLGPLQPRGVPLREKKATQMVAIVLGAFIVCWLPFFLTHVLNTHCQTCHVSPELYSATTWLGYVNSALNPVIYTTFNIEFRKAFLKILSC

[5] = molecular target: human serotonin 5-HT6 receptor (Homo sapiens, UniProt P50406); test: [3H]LSD binding assay for cloned 5-HT6 receptors
human serotonin 5-HT6 receptor, sequence (P50406 whole entry): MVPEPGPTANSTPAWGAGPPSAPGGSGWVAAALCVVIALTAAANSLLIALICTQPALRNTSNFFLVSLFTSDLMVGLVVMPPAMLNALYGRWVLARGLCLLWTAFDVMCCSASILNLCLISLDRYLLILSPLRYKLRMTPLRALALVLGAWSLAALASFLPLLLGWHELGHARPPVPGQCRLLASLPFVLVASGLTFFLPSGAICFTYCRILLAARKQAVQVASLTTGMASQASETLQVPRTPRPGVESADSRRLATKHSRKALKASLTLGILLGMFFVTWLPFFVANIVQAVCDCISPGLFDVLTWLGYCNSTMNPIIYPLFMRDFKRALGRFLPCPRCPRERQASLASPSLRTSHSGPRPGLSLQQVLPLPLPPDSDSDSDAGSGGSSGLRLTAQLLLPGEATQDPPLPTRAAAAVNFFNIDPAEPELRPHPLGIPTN

| Structure (SMILES) | IC50 (D2 (hD2L receptor)) [µM] | IC50 (D4 (hD4.2 receptor)) [µM] | melting point [°C] | IC50 [1] [µM] | IC50 [2] [nM] | IC50 [3] [nM] | IC50 [4] [nM] | IC50 (D3 (hD3 receptor)) [nM] | IC50 [5] [nM] |
| --- | --- | --- | --- | --- | --- | --- | --- | --- | --- |
| CN1CCN(c2cc(Cl)cc3c2c(=O)n(Cc2cccc(I)c2)c(=O)n3Cc2ccccc2)CC1 [Example 20, 1-benzyl-7-chloro-3-(3-iodo-benzyl)-5-(4-methyl-piperazin-1-yl)-1H-quinazoline-2,4-dione] | > 10 | > 10 | 182 to 184 | 1.92 | 3530 | 912 | 1050 | 615 | 1.6 |
| Cc1ccccc1Cn1c(=O)c2c(N3CCN(C)CC3)cc(Cl)cc2n(Cc2ccccc2)c1=O [Example 22, 1-benzyl-7-chloro-3-(2-methyl-benzyl)-5-(4-methyl-piperazin-1-yl)-1H-quinazoline-2,4-dione] | > 10 | > 10 | 92 to 95 | 3.97 | 5780 | 663 | 216 | 1540 | 2.1 |
| O=c1c2c(N3CCNCC3)cc(Cl)cc2n(Cc2ccccc2)c(=O)n1Cc1ccccc1Cl [Example 59, 1-benzyl-7-chloro-3-(2-chloro-benzyl)-5-piperazin-1-yl-1H-quinazoline-2,4-dione] | > 10 | > 10 | 120 to 125 | 7.33 | 2160 | 132 | 198 | 381 | 1.7 |
| Cc1ccc(Cn2c(=O)c3c(N4CCN(C)CC4)cc(Cl)cc3n(Cc3ccccc3)c2=O)o1 [Example 47, 1-benzyl-7-chloro-3-(5-methyl-furan-2-ylmethyl)-5-(4-methyl-piperazin-1-yl)-1H-quinazoline-2,4-dione] | > 10 | > 10 | 132 to 136 | 8.74 | 1140 | 830 | 465 | 2810 | 1.4 |
| CN1CCN(c2cc(Br)cc3c2c(=O)n(Cc2ccccc2Cl)c(=O)n3Cc2ccccc2)CC1 [Example 55, 1-benzyl-7-bromo-3-(2-chloro-benzyl)-5-(4-methyl-piperazin-1-yl)-1H-quinazoline-2,4-dione] | > 10 | > 10 | 104 to 108 | 5.14 | 2720 | 130 | 252 | 1440 | 1.5 |
| CN1CCN(c2cc(Cl)cc3c2c(=O)n(Cc2ccccc2[N+](=O)[O-])c(=O)n3Cc2ccccc2)CC1 [Example 31, 1-benzyl-7-chloro-5-(4-methyl-piperazin-1-yl)-3-(2-nitro-benzyl)-1H-quinazoline-2,4-dione] | > 10 | > 10 | 164 to 169 | > 10 | 2240 | 49 | 952 | 1240 | 1.4 |
| CN1CCN(c2cc(Cl)cc3c2c(=O)n(Cc2ccccc2Cl)c(=O)n3Cc2ccccc2)CC1 [Example 17, 1-benzyl-7-chloro-3-(2-chloro-benzyl)-5-(4-methyl-piperazin-1-yl)-1H-quinazoline-2,4-dione] | > 10 | > 10 | 87 to 92 | 2.18 | 3280 | 169 | 512 | 138 | 0.5 |
| Cc1cc(C)cc(CCCn2c(=O)c3c(N4CCN(C)CC4)cc(Cl)cc3n(Cc3ccccc3)c2=O)c1 [Example 44, 1-benzyl-7-chloro-3-[3-(3,5-dimethyl-phenyl)-propyl]-5-(4-methyl-piperazin-1-yl)-1H-quinazoline-2,4-dione] | 0.987 | > 10 | 67 to 73 | > 10 | 2780 | 197 | 2650 | 73 | 2 |
| CN1CCN(c2cc(Cl)cc3c2c(=O)n(Cc2ccccc2Br)c(=O)n3Cc2ccccc2)CC1 [Example 14, 1-benzyl-3-(2-bromo-benzyl)-7-chloro-5-(4-methyl-piperazin-1-yl)-1H-quinazoline-2,4-dione] | 3.32 | > 10 | 91 to 93 | 5.94 | 1080 | 394 | 728 | 480 | 0.9 |
| CN1CCN(c2cc(Cl)cc3c2c(=O)n(Cc2cccc(Cl)c2)c(=O)n3Cc2ccccc2)CC1 [Example 18, 1-benzyl-7-chloro-3-(3-chloro-benzyl)-5-(4-methyl-piperazin-1-yl)-1H-quinazoline-2,4-dione] | 7.32 | > 10 | 165 to 169 | 1.88 | 1780 | 1380 | 748 | 339 | 2.1 |
